Test results from patent US20210220482A1, “MITOCHONDRIAL COPPER DEPLETION REPROGRAMS THE METABOLISM OF TRIPLE NEGATIVE BREAST CANCER” (The Board of Trustees of the Leland Stanford Junior …, priority 2019, published 2021).
Read-outs that look alike come from different tables or passages of the source.

Key:
[1] = tested on: MDA-MB-231 and MDA-MB-468 cells; experiment: Western blot of cleaved caspase 3 (apoptosis); type: cell-based, human; conditions: 24 h incubation; CDM 1 μM, ATN224 5 μM, inhibitors 1 μM
Description: Then cells were trypsinized, and cell lysates were prepared with RIPA buffer (Thermo, cat. no. 89900). The protein concentrations were quantified by Pierce BCA assay (Thermo Scientific, 23250). Cleaved caspase 3 antibody was purchased from Cell Signaling Technologies (Asp175, no. 9661). SOD1 antibody was from Santa Cruz Biotechnologies (sc-101523).

[2] = tested on: MDA-MB-231 orthotopic tumors; experiment: Long-term survival study; type: in vivo, nude mice; conditions: i.v. weekly, seven doses, chelator 1.35 mg kg^−1; ATN224 oral gavage 0.7 mg kg^−1 d^−1
Text: The SPN group received an i.v. injection of the same amount of SPN as in the CDN group weekly for seven doses in total. […] The treatment plan was initiated when the average tumor size reached 50 mm^3 and the endpoint of the survival study was primary tumor volume over 500 mm^3 and/or other signs identified by the veterinarian. The tumor volumes were continuously monitored over the treatment plan.

[3] = tested on: MDA-MB-231 and MDA-MB-468 cells; experiment: OCR and ECAR measurement (Seahorse); type: cell-based, human; conditions: after 1 h of incubation, both cell lines, vs nontreated control
Description: OCR and ECAR measurement. OCR and ECAR were measured by a Seahorse Bioscience instrument (XF96, Agilent). Briefly, on the day following MDA-MB-231 or MDA-MB-468 cell seeding, cells were incubated with CDN or control agents for 24 h (chelator concentration, 1 μM). On the day of measurement, cells were washed three times with D-PBS, changed into fresh medium without phenol red and bicarbonate (Seahorse base medium, cat. no. 103336-100) and equilibrated for 30 min in a 37° C. incubator lacking CO2. Oxygen concentration and extracellular acidification in media were measured at basal conditions and after sequential addition of oligomycin (1 μM, introduced after 28 min), FCCP (1 μM, introduced after 54 min) and rotenone/antimycin A (0.5 μM, introduced after 80 min) (n=8 per condition for OCR and ECAR for each cell line). […] Cells were then changed into Seahorse base medium and equilibrated for 30 min in a 37° C. incubator lacking CO2. Oxygen concentration and extracellular acidification in media were measured at basal conditions and after sequential addition of oligomycin (1 μM, introduced after 28 min), FCCP (1 μM, introduced after 54 min) and rotenone/antimycin A (0.5 μM, introduced after 80 min) (n=6 per condition for OCR and ECAR for each cell line).

[4] = tested on: MDA-MB-231luc cells; experiment: In vitro copper depletion (CCL-1 luminescence, CDM fluorescence); type: cell-based, human; conditions: CDN (CDM 1 μM) with excess EDTA, 24 h
Description: In vitro copper depletion: The copper level after CDN or control agent treatment was measured by CCL-1 luminescence imaging or ratiometric fluorescence microscopic imaging of fCDN. […] SPN, 50 μg ml-1) was added and incubation was continued for 24 h. […] Cells were immediately imaged by IVIS Spectrum (PerkinElmer) for 45 min. The integration images of luminescent radiance were presented. […] Images were processed as green/red ratios profiled by ImageJ and presented in pseudo-colors.

[5] = tested on: MDA-MB-231 and MDA-MB-468 cells; experiment: Cell viability with ROS scavenger MitoTEMPO; type: cell-based, human; conditions: MitoTEMPO up to 5 μM
Description: Cytotoxicity: For the MTS assay, TNBC and normal cells were seeded into 96-well plates 24 h before the test and cultured in a humidified atmosphere of 5% CO2 and 95% air at 37° C. Cells were then incubated with CDN or control agents with the concentrations indicated in FIG. 2 in complete medium or base medium without FBS supplement. At 24 h after incubation, cells were washed with PBS three times and changed to fresh medium. The viability of the cells after treatment was measured using the MTS assay (CellTiter 96, Promega, cat. no. G3580). The viability was presented as the percentage of control (n=3 per condition for viability). For the trypan blue exclusion test, TNBC cells were seeded into six-well plates 24 h before the test and cultured in a humidified atmosphere of 5% CO2 and 95% air at 37° C. Cells were then incubated with CDN or control agents in complete medium. […] The viability of the cells was measured with Countess II (Life Technology). […]
Cellular ATP measurement: ATP levels after CDN or control agent treatment were determined by Adenosine 5-triphosphate Bioluminescent Somatic Cell Assay Kit (Sigma-Aldrich, FLASC). […] The luminescence signals were measured by a Turner Biosystems 20/20n luminometer. The ATP concentration of each group was determined based on the ATP standard assay (n=3 per condition ATP production measurement for each cell line).

[6] = tested on: MDA-MB-468 cells; experiment: Cytotoxicity MTS assay, MDA-MB-468; type: cell-based, human; conditions: MDA-MB-468, 24 h, in the presence of serum
Description: (§1) Cytotoxicity: For the MTS assay, TNBC and normal cells were seeded into 96-well plates 24 h before the test and cultured in a humidified atmosphere of 5% CO2 and 95% air at 37° C. Cells were then incubated with CDN or control agents with the concentrations indicated in FIG. 2 in complete medium or base medium without FBS supplement. At 24 h after incubation, cells were washed with PBS three times and changed to fresh medium. The viability of the cells after treatment was measured using the MTS assay (CellTiter 96, Promega, cat. no. G3580). The viability was presented as the percentage of control (n=3 per condition for viability). For the trypan blue exclusion test, TNBC cells were seeded into six-well plates 24 h before the test and cultured in a humidified atmosphere of 5% CO2 and 95% air at 37° C. Cells were then incubated with CDN or control agents in complete medium. At 24 h after incubation, cells were washed with PBS three times and collected with a scraper. The cell suspension was then mixed with 0.4% trypan blue dye (1:1; Thermo Fisher Scientific, cat. no. 15250061) and incubated for less than 3 min at room temperature. The viability of the cells was measured with Countess II (Life Technology). The viability was presented as the percentage of control (n=3 per condition for viability).

[7] = tested on: MDA-MB-231 cells; experiment: Cytotoxicity MTS assay, MDA-MB-231; type: cell-based, human; conditions: MDA-MB-231, 24 h, in the presence of serum, read-out: half-maximum inhibitory concentration (IC50)
Description: as §1

[8] = tested on: MDA-MB-231luc orthotopic breast cancer; experiment: Copper level in tumor after treatment (CCL-1/d-luciferin imaging); type: in vivo, mice; conditions: i.v. 1.35 mg kg^−1 every 3 d, day 25, compared with the control group
Description: For the treatment group, mice were intravenously injected with CDN or control agents every 3 d, with five doses in total. Tumor volume was continuously monitored over the treatment plan. At day 25 after initial treatment, mice were subjected to d-luciferin bioluminescence imaging (150 mg kg^−1) and CCL-1 luminescence imaging (6 mg kg^−1).

C[N+](C)(C)CCO.C[N+](C)(C)CCO.[SH-].[SH-].[S]=[Mo]=[S] [ATN224]
apoptosis (cleaved caspase 3) [1]: but not with ATN224 treatment
median survival [2]: 32 days

Cc1cc(-c2nc(-c3ccc(OC(F)(F)F)cc3)no2)nn1Cc1ccnc(N2CCN(C3CC3)CC2)c1 [BAY 87-2243]
apoptosis (cleaved caspase 3) [1]: barely induced apoptosis
oxygen consumption (OCR) [3]: almost completely inhibited the oxygen consumption

O=C(O)CN(CCN(CC(=O)O)CC(=O)O)CC(=O)O [EDTA, ethylenediaminetetraacetic acid]
CCL-1 luminescence (labile copper) [4]: 78.6±11.7 % of the CDN group
CDM fluorescence [4]: 123.7±4.1 % of the CDN group

Cc1nc(-c2nc(-c3ccc(OC(F)(F)F)cc3)no2)nn1Cc1cccc(N2CCC(S(C)(=O)=O)CC2)c1 [IACS-010759]
apoptosis (cleaved caspase 3) [1]: barely induced apoptosis
oxygen consumption (OCR) [3]: almost completely inhibited the oxygen consumption

CC1(C)CC(NC(=O)C[P+](c2ccccc2)(c2ccccc2)c2ccccc2)CC(C)(C)N1[O] [MitoTEMPO]
rescue of cells from the CDN treatment effect ([5]; CDM 1 μM, 24 h): did not rescue the cells
effect on cell viability ([5]; medium with or without FBS): will not affect the cell viability

[SH-].[SH-].[S]=[Mo]=[S] [TM, tetrathiomolybdate]
IC50 [6]: ~46.3 µM
IC50 [7]: > 100 µM

c1ccc(CN(Cc2ccccn2)Cc2ccccn2)nc1 [TPA, tris[(2-pyridyl)-methyl]amine]
copper in the tumor region (CCL-1 to d-luciferin total flux ratio) [8]: successfully depleted the copper in the tumor region
median survival [2]: 35 days
IC50 ([6]; Homo sapiens): 5.34 ± 1.12 µM
IC50 ([7]; Homo sapiens): 9.25 ± 2.19 µM
